Values joined by “and” are separate entries in the source; they are usually repeats but may differ in a detail not shown here. Equal entries are not always repeated. “Also recorded” adds a separate entry of the source.
Key:
[1] = test system: Culex spp.; experiment: Mosquito repellency of 2-undecanone and 2-tridecanone, treated arm in cage (Example 6); format: in vivo; details: for No. landings: single replicates; for observed repellent / residual activity (words): observed up to 24 hours post-treatment
Text: Cages. The same two mosquitoes cages described in Example 5 were used for this example. The cages were constructed using wood framing and fine mesh wire screen. The dimensions of each cage were 59 cm high×55 cm wide by 59 cm deep. A hinged access door was installed at the front of each chamber for insertion of the water-filled containers filled with mosquito pupae. Also present at the front of each chamber was a 9 cm diameter plastic tube (i.d.) for insertion of the arm of the investigator. The arm insertion tube was sealed with a rubber stopper when not in use.
Mosquitoes and Mosquito Rearing. Mosquitoes (Culex spp.) were obtained (as pupae and larvae) from Carolina Biological Supply Co., Burlington, N.C., USA in two successive shipments, so as to provide a continuing long term supply of fresh insects. Following their arrival, the mosquitoes were divided into approximately equal numbers in multiple water-filled containers and placed in the two cages described above. The larval and pupal cultures were fed with insect rearing compound. In addition, the water was changed regularly by filtration to minimize contamination and prevent overcrowding. Continuous culturing made it possible to increase the mosquito numbers to more than 100 insects per cage.
Test Compounds and Testing Schedule. Testing was done with two compounds, 2-undecanone, and 2-tridecanone, for repellent activity by treating one arm of the investigator with approximately 1 ml of the test solution. Following several minutes for solvent evaporation, the treated arm was inserted through the insertion tube for 5 minutes. The other arm was treated with isoprbpanol (control) or a different concentration of the compound, and inserted into the insertion tube of the adjacent chamber. Next, the behavior of the mosquitoes in response to the presence of the investigator's arms was noted. Mosquito behavior was recorded as 1) landing or attempting to land on the investigator's arm, or coming to rest on the wire screen immediately adjacent to the investigator's arm or hand, versus 2) dispersal away from the treated arm towards the opposite ends of the cage. The approximate number of mosquitoes present at the beginning of the observations was noted. For treatments with 2-undecanone, observations were made initially to confirm 100% repellent activity of the compound immediately after treatment but observations were not recorded. Recording of efficacy was delayed until 6 hours after treatment, and then repeated at 12 and 24 hours post-treatment. For treatment with 2-tridecanone, the observations commenced immediately after solvent drying; then, the observations were repeated (without re-treatment of the investigator's hand and arm) after 6 hours, 12 hours and 24 hours. Treatments were alternated between the different cages. […]
2-tridecanone was obtained as a solid. To prepare this compound for testing, it was subjected to gentle heating in a 37° C. water bath to liquefy it, and aliquots of the stock were diluted volume: volume with isopropanol to 50% concentration and 20% concentration. Sufficient pure compound was retained for direct application (undiluted).
Tests were done at concentrations of 100%, 50%, and 20% for each of the two compounds, as well as 20% DEET, and the isopropanol control.
Table 3 presents the efficacy found at the different time intervals for each of the compounds at the three different concentrations and for DEET. Efficacy was calculated according to the formula: [(no. landings/no. present in control)−(no. landings/no. present in experinental) divided by (no. landings/no. present in control)]×100.

[2] = test system: Aedes albopictus; experiment: One-minute biting counts on treated forearm (Example 7); format: in vivo; details: 20% formulations; post-treatment time intervals
Method: This experiment was performed to evaluate the comparative repellency of 5% and 20% 2-undecanone in ethanol, 20% 2-tridecanone in isopropanol and Off!™ 14.25% DEET Insect Repellent aerosol against Aedes albopictus (Asian tiger mosquitoes) and Culex quinquefasciatus (southern house mosquitoes).
Three to four-day-old laboratory-reared female Ae. albopictus and Cx. quinquefasciatus were transferred by aspiration into eight cages measuring 10 inches high×10 inches wide×13 inches deep at a targeted stocking rate of 100 and 200, respectively. Four cages contained Ae. albopictus and four contained Cx. quinquefasciatus. A greater number of Cx. quinquefasciatus was used to compensate for lower biting activity anticipated for this species. The actual number of females per cage was lower than the target-stocking rate because of the high number of males that were inadvertently introduced into the cages. Each cage contained a screened back wall, clear Plexiglas top, stockinette entry sleeve and solid aluminum floor and sidewalls. The mosquitoes were fed water and sugar water prior to and between tests. The tests were conducted over four days, Aug. 7-10, 2001, with four men participating as testers. All testers washed both arms with a non-fragrance soap, rinsed and swabbed with 25% ethanol prior to applying treatments. Treatments were applied to the forearm in a region extending from the wrist to a point measured at 12″ back from the tip of the index finger on both arms. The 20% 2-tridecanone was not applied as uniformly as the other repellents because an insufficient quantity was available. Latex gloves were worn over the hands and replaced before each biting count. The control consisted of a soap wash, rinse and 25% ethanol swab and was conducted by the same person throughout the study. One-minute biting counts were recorded at 0, 1, 2, 4 & 6 hours post-treatment time intervals. All treatments were randomly assigned to each tester, two treatments per tester. Cage placement was also randomized at the beginning of each day of testing. Testers were rotated each day so that by the end of the study they had occupied each cage location. Each repellent was tested two times by three testers so that mean biting counts were based on six observations. A Hobo datalogger was used to monitor temperature and humidity throughout the study.
A balanced incomplete block design following American Society for Testing and Materials standards E 939-94 was employed. Data were normalized by square root transformation and submitted to analysis of variance and mean separation procedures via SS PC. Microsoft Excel 2000 pivot tables and charting functions were used to plot mean biting counts and standard errors by species and time interval for each treatment and control. Mean biting counts were transformed to percent protection or repellency by the following formula: Control−Treatment/Control×100.

[3] = 20% concentration, 0 hours after treatment
[4] = 20% concentration, 6 hours after treatment
[5] = 20% concentration, 12 hours after treatment
[6] = 20% concentration, 24 hours after treatment
[7] = 50% concentration, 0 hours after treatment
[8] = 50% concentration, 6 hours after treatment
[9] = 50% concentration, 12 hours after treatment
[10] = 50% concentration, 24 hours after treatment
[11] = 100% concentration, 0 hours after treatment
[12] = 100% concentration, 6 hours after treatment
[13] = 100% concentration, 12 hours after treatment
[14] = 100% concentration, 24 hours after treatment

## CCCCCCCCCCCC(C)=O [2-tridecanone]
[1]; 20% concentration, 0 hours
  Percent Efficacy Post-Treatment: 1.5%^
[1]; [3]
  No. landings, Mean: 4.0
  Percent = [(No. landings/No. present)] × 100: 14.4%
  No. landings: 4 and 3 and 5
[1]; 20% concentration, 6 hours
  Percent Efficacy Post-Treatment: 0%
[1]; [4]
  No. landings, Mean: 4.7
  Percent = [(No. landings/No. present)] × 100: 14.0%
  No. landings: 3 and 4 and 7
[1]; 20% concentration, 12 hours
  Percent Efficacy Post-Treatment: 22.2%
[1]; [5]
  No. landings, Mean: 4.7
  Percent = [(No. landings/No. present)] × 100: 13.0%
  No. landings: 3 and 5 and 6
[1]; 20% concentration, 24 hours
  Percent Efficacy Post-Treatment: 0%
[1]; [6]
  No. landings, Mean: 5.7
  Percent = [(No. landings/No. present)] × 100: 14.9%
  No. landings: 5 and 6 (2×)
[1]; 20% concentration
  observed repellent / residual activity (words): repellant activity was not observed
[1]; 20% concentration, listed as 2-Tridecanone
  observed repellent / residual activity (words): Comments: No residual repellent activity was observed.
[1]; 50% concentration, 0 hours
  Percent Efficacy Post-Treatment: 95.2%
[1]; [7]
  No. landings, Mean: 0.7
  Percent = [(No. landings/No. present)] × 100: 0.7%
  No. landings: 0 and 1 (2×)
[1]; 50% concentration, 0 hours after treatment, listed as 2-Tridecanone
  Percent = [(No. landings/No. present)] × 100: 2.4%
[1]; 50% concentration, 6 hours
  Percent Efficacy Post-Treatment: 67.7%
[1]; [8]
  No. landings, Mean: 1.3
  Percent = [(No. landings/No. present)] × 100: 4.3%
  No. landings: 3 and 0 and 1
[1]; 50% concentration, 6 hours after treatment, listed as 2-Tridecanone
  Percent = [(No. landings/No. present)] × 100: 4.3%
[1]; 50% concentration, 12 hours
  Percent Efficacy Post-Treatment: 0%
[1]; [9]
  No. landings, Mean: 5.7
  Percent = [(No. landings/No. present)] × 100: 19.7%
  No. landings: 7 and 4 and 6
[1]; 50% concentration, 24 hours
  Percent Efficacy Post-Treatment: 0%
[1]; [10]
  No. landings, Mean: 5.0
  Percent = [(No. landings/No. present)] × 100: 18.7%
  No. landings: 7 and 4 (2×)
[1]; 50% concentration
  observed repellent / residual activity (words): activity greatly diminished or was absent after 12 and 24 hours.
[1]; 100% concentration, 0 hours
  Percent Efficacy Post-Treatment: 87.7%
[1]; [11]
  No. landings, Mean: 1.3
  Percent = [(No. landings/No. present)] × 100: 1.8%
  No. landings: 0 and 1 and 3
[1]; 100% concentration, 0 hours after treatment, listed as 2-Tridecanone
  Percent = [(No. landings/No. present)] × 100: 1.8%
[1]; 100% concentration, 6 hours
  Percent Efficacy Post-Treatment: 18.1%
[1]; [12]
  No. landings, Mean: 9.7
  Percent = [(No. landings/No. present)] × 100: 10.9%
  No. landings: 9 and 10 (2×)
[1]; 100% concentration, 12 hours
  Percent Efficacy Post-Treatment: 41.9%
[1]; [13]
  No. landings, Mean: 10.3
  Percent = [(No. landings/No. present)] × 100: 9.7%
  No. landings: 16 and 7 and 8
[1]; 100% concentration, 24 hours
  Percent Efficacy Post-Treatment: 0%
[1]; [14]
  No. landings, Mean: 15.0
  Percent = [(No. landings/No. present)] × 100: 13.3%
  No. landings: 17 and 15 and 13
[1]; 100% concentration
  observed repellent / residual activity (words): Comments: The compound was highly repellent. A huge cloud of mosquitoes retreated
[1]; 100%, 50% and 20% concentrations, 0 to 24 hours
  overall repellent activity, comparison of the two compounds: less effective as a repellent against mosquitoes than 2-undecanone
[2]
  repellency: low repellency

## CCN(CC)C(=O)c1cccc(C)c1 [DEET, N,N-diethyl-meta-toluamide, reference compound]
[1]; 20% concentration, 0 hours
  Percent Efficacy Post-Treatment: 91.1%
[1]; [3]
  No. landings, Mean: 1.3
  Percent = [(No. landings/No. present)] × 100: 1.3%
  No. landings: 2 (2×) and 0
[1]; 20% concentration, 6 hours
  Percent Efficacy Post-Treatment: 63.9%
[1]; [4]
  No. landings, Mean: 5.7
  Percent = [(No. landings/No. present)] × 100: 4.8%
  No. landings: 10 and 4 and 3
[1]; 20% concentration, 12 hours
  Percent Efficacy Post-Treatment: 31.7%
[1]; [5]
  No. landings, Mean: 15.0
  Percent = [(No. landings/No. present)] × 100: 11.4%
  No. landings: 12 and 15 and 18
[1]; 20% concentration, 24 hours
  Percent Efficacy Post-Treatment: 16.8%
[1]; [6]
  No. landings, Mean: 13.0
  Percent = [(No. landings/No. present)] × 100: 10.9%
  No. landings: 14 (2×) and 11
[1]; 20% concentration
  observed repellent / residual activity (words): strong immediate and residual activity for up to 6 hours, weak activity at 12 hours and none thereafter; also recorded: treatment, but no residual activity was observed at 12 or 24 hours post-treatment

— patent publication US7288573B2, “Method of repelling insects” (priority 2001, dated 2007)
